# Measured values reported in patent US8895032B2, “Dendritic nano-antioxidants” (Central Michigan University, priority 2009, dated 2014).
# What was measured:
# DPPH radical assay = assay: DPPH radical assay
# Protocol: The DPPH assay was one of three electron transfer (ET) assays used to determine the antioxidant potential of compound 1 (described in Example 6) in comparison to its monomeric counterpart (syringaldehyde) as well as popular antioxidants. In an ET assay, an antioxidant donates electron(s) to a molecular probe, thus reducing it. From the assay, thermodynamic conversion of antioxidant to antioxidant radical (oxidation) is measured during a fixed time period.
# The reduction of DPPH radical was determined for ascorbic acid, Trolox, syringaldehyde, and the compound 1 described in Example 6 as previously reported (Brand-Williams, et al. Lebensm.-Wiss U.-Technol. 1995, 28, 25-30, incorporated herein by reference in its entirety). In the DPPH assay, DPPH• radical was reduced by the antioxidant in methanol (Brand-Williams, et al. Lebensm.-Wiss U.-Technol. 1995, 28, 25-30, incorporated herein by reference in its entirety). […] The DPPH reagent was made in methanol. Antioxidant sample (10 μL) was added to 1.0 mL of reagent and the absorbance was monitored at 515 nm until a plateau was reached. Antioxidant concentrations were 50 μM syringaldehyde, 12.5 μM Trolox and ascorbic acid, and 5 μM compound 1. All samples were made in methanol and run in triplicates at room temperature.
# The DPPH• scavenging capacity of each antioxidant was evaluated from the plot of the percentage DPPH• remaining when the kinetics reached a steady state as a function of the molar ratios of antioxidant to DPPH•. […] Using the curve, EC50 (the amount of antioxidant necessary to decrease the initial DPPH• concentration by 50%), antiradical power (1/EC50, ability to reduce the DPPH•), reaction stoichiometry (EC50×2, the concentration of antioxidant required to reduce 100% of DPPH• radical), and the number of reduced DPPH• per antioxidant molecule (1/stoichiometry) for each antioxidant were calculated as previously described (Brand-Williams, et al. Lebensm.-Wiss U.-Technol. 1995, 28, 25-30, incorporated herein by reference in its entirety) and are depicted in Table 1.
# Antioxidant capacity of the compounds was assessed by the DPPH assay (Brand-Williams, et al. Lebensm. Wiss. Technol. 1995, 28, 25, incorporated herein by reference in its entirety). […] In FIG. 22, control with methanol is (X, dashed); compound 1 is (□), compound 2 is (•), compound 3 is (◯), and Trolox (Δ). All antioxidant concentrations were 5 μM.
# The free-radical scavenging ability of the antioxidants was evaluated by the DPPH assay, as described above in Example 7.
# [1] = ABTS radical cation decolorization assay; type: biochemical
# Text: We have tested AO activity of G1 (13) using ABTS as a radical source using a previously reported spectroscopic assay. The AO activity of the G1 (13) was compared to those of syringaldehyde, gallic acid, and vitamin C. If the phenolic OH group is the radical scavenging site, the expected AO activity of the G1 (13) should be 4 fold higher than that of syringaldehyde and 1.3 fold higher than that of gallic acid (which has three phenolic OH groups).
# ABTS radical cation decolorization assay was used as previously described (Ozgen, et al. J. Agric. Food Chem. 2006, 54, 1151-1157, incorporated herein by reference in its entirety). Like the DPPH assay, this was also a decolorization assay and measured absorbance decrease at 734 nm as the ABTS radical (ABTS•+) is quenched by the antioxidant. The solvent used for the assay was ethanol. ABTS reagent was added to 1.0 mL solvent in a cuvet to bring the absorbance to 0.7. A 10 μL sample of antioxidant was then added, mixed, and the absorbance monitored at 734 nm for 6 min. Antioxidant concentrations were 14.4 μM Trolox, 11.4 μM ascorbic acid, 15.4 μM syringaldehyde, and 3 μM compound 1. The % decrease in absorbance at 6 min was plotted against antioxidant concentrations. The gradient of the line obtained by linear regression for a given antioxidant was divided by that obtained for Trolox to yield Trolox equivalent antioxidant (TEAC) values. All samples were made in ethanol and run in triplicates and at room temperature.
# [2] = FRAP assay (reduction of Fe(III) to Fe(II)); type: biochemical; parameters: Slope of ΔA593 versus concentration: unit not given here; conditions: for Slope of ΔA593 versus concentration: 37° C.
# Protocol: The FRAP assay was performed as previously described (Pulido, et al. J. Agric. Food Chem. 2000, 48, 3396-3402, incorporated herein by reference in its entirety). In the FRAP assay, ferric was reduced by the antioxidant to ferrous via electron transfer (Benzie et al., Anal. Biochem. 1996, 239, 70-76, incorporated herein by reference in its entirety). This assay measured the redox potential of an antioxidant which is used as an estimate of antioxidant efficiency and expressed as a FRAP value. […] The compound 1 as well as the other antioxidants was dissolved in methanol. […] Reaction kinetics of the compound 1 and other antioxidants were obtained by plotting the change in slopes at various times and are shown in FIG. 18. […] This time-dependent increase in absorbance was previously reported (Pulido, et al. J. Agric. Food Chem. 2000, 48, 3396-3402, incorporated herein by reference in its entirety) and was especially significant with polyphenolic compounds. […] However, the FRAP value increased with time, reaching 2.5 in 60 min. […] J. Agric. Food Chem. 2000, 48, 3396-3402, incorporated herein by reference in its entirety). […] EC1 values, and therefore ferric reducing ability, were lower at longer reaction times as expected from the kinetic behavior of the antioxidants (Pulido, et al. J. Agric. Food Chem. 2000, 48, 3396-3402, incorporated herein by reference in its entirety).
# [3] = Brand-Williams et al.; cited from earlier work
# Human LDL = assay: Protection of LDL from AAPH oxidation (agarose gel electrophoresis); type: biochemical; conditions: 1-30 μM, 20 mM AAPH, 21 h, 37° C.
# Text: The antioxidant activity of compounds 1, 2, and 3 towards biomolecules was examined by studying their ability to protect LDL, fatty acid, and DNA from free radicals. For LDL, AAPH was used to induce free radical damage. AAPH was used instead of copper (Cu^2) ion for LDL oxidation so that the free radical scavenging activity of the antioxidants could be measured without any pro-oxidant interference caused by metal ions (Salah, N. et al. Arch. Biochem. Biophys. 1995, 322, 339, incorporated herein by reference in its entirety). All solutions were made in ultra-pure water.
# Protection of LDL from AAPH free radicals by the antioxidant decreased the anodic shift in a dose-dependent manner (FIG. 23). […] The increased hydrophobicity of compound 3 may be partly responsible for its improved LDL protection over compound 2.
# The antioxidant activity of the antioxidants towards biomolecules was examined by studying their ability to protect LDL, lysozyme, and DNA from free radicals. For LDL, AAPH was used to induce free radical damage. AAPH was used instead of Cu^2+ for LDL oxidation so that the free radical scavenging activity of the antioxidants could be measured without any pro-oxidant interference caused by metal ions. The oxidation of human low-density lipoprotein was used as a model for evaluating the ability of the G1 dendrimers as chain-breaking antioxidants for lipid. Oxidation of LDL leads to changes in both the lipid and the protein moieties of the lipoprotein particle. Lipid peroxidation in LDL has been evaluated by a variety of methods. Due to the complexity of events that occur in lipoprotein oxidation, the electrophoretic migration pattern of oxidized LDL is one of the best methods to evaluate the extent of lipoprotein oxidation. LDL was incubated with 20 mM AAPH and increasing concentrations of the G1 dendrimers (0-37 μM in PBS) for 21 h at 37° C. The mixture was then subjected to agarose gel electrophoresis using the Ciba Corning Clinical Electrophoresis System. The agarose gel was stained with Fat Red 7B. In FIG. 30A (top), lane 1 is native LDL, and lanes 2-8 are AAPH-oxidized LDL with 0, 37, 18.5, 9, 4.5, 2 and 1 μM compound 4, respectively. In FIG. 30B (bottom), lane 1 is native LDL, and lanes 2-8 are AAPH-oxidized LDL with 0, 37, 18.5, 9, 4.5, 2 and 1 μM quercetin or Trolox, respectively.
# plasmid DNA pBR 322 = assay: Protection of plasmid DNA from AAPH damage (agarose electrophoresis); type: biochemical; conditions: 10 mM AAPH, 37° C., 4 h
# Protocol: The effectiveness of the three compounds to protect DNA from AAPH damage was also determined. The plasmid DNA pBR 322 was incubated with AAPH (final concentration 10 mM) at 37° C. for 4 h with or without antioxidants (final concentrations, 0.35-45 μM), after which the samples were subjected to agarose electrophoresis (Sakihama, Y., et al. Toxicology 2002, 177, 67, incorporated herein by reference in its entirety). […] In the absence of AAPH, pBR 322 was mostly in its supercoiled (S) form (small amount of open circular, O, form was also visible, lane 1 FIG. 25). After reaction with AAPH, the DNA was transformed almost entirely into its open circular form (lane 2, FIG. 25). […] No protection was obtained for both compound 1 and quercetin below 5 μM (lanes 7-10, FIG. 25). […] Compound 3 as well as Trolox were ineffective at all concentrations used in the experiment (0.35-45 μM).
# Protection of DNA from free radical damage by the antioxidant dendrimers (compounds 4, 5, and 1) was also evaluated. Plasmid DNA (pBR 322) samples, were incubated with AAPH (final concentration 10 mM) at 37° C. for 4 h with antioxidants (final concentrations, 0.35-45 μM) and subjected to agarose electrophoresis. […] The native DNA was mostly in its supercoiled (S) form (small amount of open circular, O, form was also visible, lane 1, FIG. 31). In the presence of AAPH, the DNA was transformed almost entirely into its O form (lane 2, FIG. 31). […] Negligible DNA protection was afforded by all three dendrimers at ≦2.5 μM (lanes 7-10, FIG. 31). Under similar conditions, Trolox as well as the starting materials for dendrimer synthesis were ineffective at all concentrations.
# pBR 322 DNA with Cu2+ = assay: Pro-oxidant effect: oxidation of DNA with copper (II) ion; conditions: 10 μM Cu2+, 37° C., 1 h
# Protocol: The pro-oxidant effect of compounds 1, 2, and 3 was examined by oxidation of DNA with copper (II) ion. pBR 322 was incubated with 10 μM Cu^2+ at 37° C. for 1 h in the presence of compound 1, 2, or 3 (final concentrations between 0.35 and 45 μM). […] Lane 1 is native DNA, and lanes 2-10 are Cu^2+-oxidized DNA with 0, 45, 23, 11, 5, 3, 1.5, 0.7, and 0.35 μM antioxidant, respectively.
# This was performed by co-incubation of DNA (pBR 322), copper (II) ion and antioxidant. […] This ultimately forms DNA-Cu(I)OOH, initiating a free radical cascade by which DNA damage occurs. pBR 322 was incubated with 10 μM Cu^2+ in the presence of antioxidants (0-45 μM) at 37° C. for 1 h and subjected to agarose electrophoresis. […] In FIG. 32, lane 1 is native DNA, and lanes 2-10 are Cu^2+ oxidized DNA with 0, 45, 23, 11, 5, 3, 1.5, 0.7, and 0.35 μM antioxidant, respectively. […] However, it should be noted that physiological concentrations of copper are less than 10-20 μM in plasma and approximately […] for the cation in cells.
smiles,measurement,setting,value
"O=C1O[C@H]([C@@H](O)CO)C(O)=C1O [Ascorbic acid, ascorbic acid]",# of DDPH• reduced per antioxidant molecule (1/stoichiometry),DPPH radical assay,1.8
same,"Antioxidant Capacity Relative to Trolox, DPPH",DPPH radical assay,1
same,"Antioxidant Capacity Relative to Trolox, ABTS",[1],0.90
same,time to reach a plateau of ABTS•+ absorbance suppression,"[1]; 14.4 μM Trolox, 11.4 μM ascorbic acid",one
same,IC50,"[1]; final concentration in the cuvet, read-out: concentration at which 50% inhibition of ABTS•+ was observed",~13 µM
same,Slope of % decrease in absorbance at 6 min versus antioxidant concentration,"[1]; linear regression, concentration in μM",3.6
same,TEAC,"[1]; slope divided by that of Trolox, % decrease in A734 at 6 min, ethanol",0.9
same,"Antioxidant Capacity Relative to Trolox, FRAP 5 min",[2]; 5 min,0.91
same,EC1 (concentration with ferric-TPTZ reducing ability equivalent to 1 mM FeSO4.7H2O),[2]; 5 min,505 µM
same,FRAP value relative to Fe(II),"[2]; 5 min, listed as Ascorbic Acid",2.0
same,FRAP value relative to Fe(II),"[2]; 5 min, listed as ascorbic acid",~2
same,FRAP value relative to Fe(II),[2]; 15 min,2.1
same,FRAP value relative to Fe(II),[2]; 30 min,2.3
same,"Antioxidant Capacity Relative to Trolox, FRAP 60 min",[2]; 60 min,1.1
same,EC1 (concentration with ferric-TPTZ reducing ability equivalent to 1 mM FeSO4.7H2O),[2]; 60 min,395 µM
same,FRAP value relative to Fe(II),[2]; 60 min,2.5
same,Slope of ΔA593 versus concentration,[2]; Reaction time 5 min,0.0238
same,Slope of ΔA593 versus concentration,[2]; Reaction time 15 min,0.0255
same,Slope of ΔA593 versus concentration,[2]; Reaction time 30 min,0.0272
same,Slope of ΔA593 versus concentration,[2]; Reaction time 60 min,0.0305
same,"ARP, previously reported value",[3],3.70
same,"Stoichiometry, previously reported value",[3],0.54
same,"number of reduced DPPH• per antioxidant molecule, previously reported value",[3],1.85
O=c1c(O)c(-c2ccc(O)c(O)c2)oc2cc(O)cc(O)c12 [quercetin],IC50,"DPPH radical assay; read-out: DPPH IC50 at 120 min, Example 15",10 µM
same,protection of LDL at all antioxidant concentrations,Human LDL,ineffective
same,DNA protection,plasmid DNA pBR 322; 5 μM antioxidant,not
same,DNA protection,plasmid DNA pBR 322; below 5 μM antioxidant,No protection
same,pro-oxidant DNA damage,pBR 322 DNA with Cu2+; 11-45 μM antioxidant,DNA damage was clearly observed
same,pro-oxidant effect,pBR 322 DNA with Cu2+; between 3 and 5 μM antioxidant,more pronounced pro-oxidant effect than compound 1
